Patent publication US8987195B2 (priority 2012, dated 2015)
Like-named read-outs stand apart in the source and are kept apart here.

Columns and labels:
[1] = target: HCV NS3/4A protease genotype 1b (Hepatitis C virus genotype 1b, UniProt P26663); experiment: HCV NS3/4A protease time-resolved fluorescence (TRF) assay, Ki against genotype 1b; type: biochemical
How it was run: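 Enzyme 0.2 nM 1b / 0.4 nM A156T / 0.025 nM 3a; 30 min preinc. w/ cpd; 25 nM TRF peptide; 2.5 h RT; ex 340/em 615 time-delayed; 4-param IC50 → Ki = IC50/(1+[S]/KM).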

[2] = test system: HCV genotype 1b replicon; experiment: HCV replicon assay, genotype 1b replicon EC50; type: cell-based, Hepatitis C virus; conditions: read-out: EC50 [gt-1b]
How it was run: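 Replicon cells (Neo^r, some luciferase:Neo^r fusion); G418 removed at plating; compound dilution series, 24-48 h. Readout: RNA by 32P-probe hybridization/protection or TaqMan, normalized to cyclophilin A RNA, or luciferase. EC50 vs DMSO control, 4-parameter fit.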

[3] = IC50 [gt-1b], NS3/4A protease TRF assay, genotype 1b enzyme 0.2 nM
[4] = Hepatitis C virus, HCV replicon, genotype 1b
[5] = IC50 [gt-1b], NS3/4A protease TRF assay, genotype 1b enzyme 0.2 nM, HCl salt
[6] = Hepatitis C virus, HCV replicon, genotype 1b, HCl salt

Compound | IC50 [1, 3] | EC50 [2, 4] | other results
COCC1(S(=O)(=O)NC(=O)[C@@]23C[C@H]2/C=C\CCCCC[C@H](NC(=O)C2CCC(=O)N(C)C2)C(=O)N2C[C@@]4(CCc5c(c(C(F)(F)F)nc6ccc(OC)cc56)O4)C[C@H]2C(=O)N3)CC1 (stereo partly drawn) [Example 500, (2R,6S,12Z,13aS,14aR,16aS)-9′-methoxy-N-{[1-(methoxymethyl)cyclopropyl]sulfonyl}-6-{[(1-methyl-6-oxopiperidin-3-yl)carbonyl]amino}-5,16-dioxo-5′-(trifluoromethyl)-1,1′,2′,6,7,8,9,10,11,13a,14,15,16,16a-tetradecahydrospiro[cyclopropa[e]pyrrolo[1,2-a][1,4]diazacyclopentadecine-2,3′-pyrano[2,3-c]quinoline]-14a(5H)-carboxamide] | 14 pM | 435000 pM | 
COc1ccc2nc(C(F)(F)F)c3c(c2c1)CC[C@]1(C[C@H]2C(=O)N[C@]4(C(=O)NS(=O)(=O)C5(C)CC5)C[C@H]4/C=C\CCCCC[C@H](NC(=O)O[C@@H]4C[C@@H]5C[C@@H]5C4)C(=O)N2C1)O3 [Example 513, (1R,3r,5S)-bicyclo[3.1.0]hex-3-yl [(2R,6S,12Z,13aS,14aR,16aS)-9′-methoxy-14a-{[(1-methylcyclopropyl)sulfonyl]carbamoyl}-5,16-dioxo-5′-(trifluoromethyl)-1,1′,2′,5,6,7,8,9,10,11,13a,14,14a,15,16,16a-hexadecahydrospiro[cyclopropa[e]pyrrolo[1,2-a][1,4]diazacyclopentadecine-2,3′-pyrano[2,3-c]quinolin]-6-yl]carbamate] | 10 pM | 1420 pM | 
CCc1nc2ccc(OCCN3CCOCC3)cc2c2c1O[C@]1(CC2)C[C@H]2C(=O)N[C@]3(C(=O)NS(=O)(=O)C4(C)CC4)C[C@H]3/C=C\CCCCC[C@H](NC(=O)O[C@@H]3C[C@@H]4C[C@@H]4C3)C(=O)N2C1 [Example 516, (1R,3r,5S)-bicyclo[3.1.0]hex-3-yl {(2R,6S,12Z,13aS,14aR,16aS)-5′-ethyl-14a-{[(1-methylcyclopropyl)sulfonyl]carbamoyl}-9′-[2-(morpholin-4-yl)ethoxy]-5,16-dioxo-1,1′,2′,5,6,7,8,9,10,11,13a,14,14a,15,16,16a-hexadecahydrospiro[cyclopropa[e]pyrrolo[1,2-a][1,4]diazacyclopentadecine-2,3′-pyrano[2,3-c]quinolin]-6-yl}carbamate] |  |  | IC50 [1, 5]: 10 pM; EC50 [2, 6]: 1090 pM
COc1ccc2nc(C(F)(F)F)c3c(c2c1)OC[C@]1(C[C@H]2C(=O)N[C@]4(C(=O)NS(=O)(=O)C5(C)CC5)C[C@@H]4/C=C/CCCCC[C@H](NC(=O)OC(C)(C)C)C(=O)N2C1)O3 [Example 517, tert-butyl [(2R,6S,12E,13aR,14aR,16aS)-9′-methoxy-14a-{[(1-methylcyclopropyl)sulfonyl]carbamoyl}-5,16-dioxo-5′-(trifluoromethyl)-1,5,6,7,8,9,10,11,13a,14,14a,15,16,16a-tetradecahydrospiro[cyclopropa[e]pyrrolo[1,2-a][1,4]diazacyclopentadecine-2,3′-[1,4]dioxino[2,3-c]quinolin]-6-yl]carbamate] | 11200 pM | 8870 pM | 
CC(C)(C)OC(=O)N[C@H]1CCCCC/C=C\[C@@H]2C[C@@]2(C(=O)NS(=O)(=O)C2(C)CC2)NC(=O)[C@@H]2C[C@]3(CCc4c(c(C(F)(F)F)nc5ccc(OCCN6CC(F)(F)C6)cc45)O3)CN2C1=O [Example 518, tert-butyl [(2R,6S,12Z,13aS,14aR,16aS)-9′-[2-(3,3-difluoroazetidin-1-yl)ethoxy]-14a-{[(1-methylcyclopropyl)sulfonyl]carbamoyl}-5,16-dioxo-5′-(trifluoromethyl)-1,1′,2′,5,6,7,8,9,10,11,13a,14,14a,15,16,16a-hexadecahydrospiro[cyclopropa[e]pyrrolo[1,2-a][1,4]diazacyclopentadecine-2,3′-pyrano[2,3-c]quinolin]-6-yl]carbamate] | 12 pM | 726 pM | 
CCc1nc2ccc(OCCN3CCOCC3)cc2c2c1O[C@]1(CC2)C[C@H]2C(=O)N[C@]3(C(=O)NS(=O)(=O)C4(C)CC4)C[C@H]3/C=C\CCCCC[C@H](NC(=O)O[C@@H](C)C(C)C)C(=O)N2C1 [Example 519, (2S)-3-methylbutan-2-yl {(2R,6S,12Z,13aS,14aR,16aS)-5′-ethyl-14a-{[(1-methylcyclopropyl)sulfonyl]carbamoyl}-9′-[2-(morpholin-4-yl)ethoxy]-5,16-dioxo-1,1′,2′,5,6,7,8,9,10,11,13a,14,14a,15,16,16a-hexadecahydrospiro[cyclopropa[e]pyrrolo[1,2-a][1,4]diazacyclopentadecine-2,3′-pyrano[2,3-c]quinolin]-6-yl}carbamate] |  |  | IC50 [1, 5]: 9 pM; EC50 [2, 6]: 541 pM
CC[C@H](C)OC(=O)N[C@H]1CCCCC/C=C\[C@@H]2C[C@@]2(C(=O)NS(=O)(=O)C2(C)CC2)NC(=O)[C@@H]2C[C@]3(CCc4c(c(C(F)F)nc5ccc(OC)nc45)O3)CN2C1=O [Example 525, (2S)-butan-2-yl [(2R,6S,12Z,13aS,14aR,16aS)-6′-(difluoromethyl)-2′-methoxy-14a-{[(1-methylcyclopropyl)sulfonyl]carbamoyl}-5,16-dioxo-1,5,6,7,8,9,9′,10,10′,11,13a,14,14a,15,16,16a-hexadecahydrospiro[cyclopropa[e]pyrrolo[1,2-a][1,4]diazacyclopentadecine-2,8′-pyrano[2,3-c][1,5]naphthyridin]-6-yl]carbamate] | 4 pM | 1160 pM | 
COc1ccc2nc(C(F)F)c3c(c2n1)CC[C@]1(C[C@H]2C(=O)N[C@]4(C(=O)NS(=O)(=O)C5(C)CC5)C[C@H]4/C=C\CCCCC[C@H](NC(=O)OCC(C)(C)C)C(=O)N2C1)O3 [Example 526, 2,2-dimethylpropyl [(2R,6S,12Z,13aS,14aR,16aS)-6′-(difluoromethyl)-2′-methoxy-14a-{[(1-methylcyclopropyl)sulfonyl]carbamoyl}-5,16-dioxo-1,5,6,7,8,9,9′,10,10′,11,13a,14,14a,15,16,16a-hexadecahydrospiro[cyclopropa[e]pyrrolo[1,2-a][1,4]diazacyclopentadecine-2,8′-pyrano[2,3-c][1,5]naphthyridin]-6-yl]carbamate] | 5 pM | 2590 pM | 
tert-Butyl (2R,6S,13aS,14aR,16aS,Z)-10′-chloro-5′-(difluoromethyl)-9′-methoxy-14a-(1-methylcyclopropylsulfonylcarbamoyl)-5,16-dioxo-1′,2′,3,5,6,7,8,9,10,11, 13a,14,14a,15,16,16a-hexadecahydro-1H-spiro[cyclopropa[e]pyrrolo[1,2-a][1,4]diaza cyclopentadecine-2,3′-pyrano[2,3-c]quinoline]-6-ylcarbamate [Example 27] |  |  | IC50 ([1]; NS3/4A genotype 1b, enzyme 0.2 nM, read-out: IC50 [gt-1b]): 11 pM; EC50 ([2]; genotype 1b replicon): 10600 pM
